From PubChem BioAssay AID651806 (Broad Institute, 2012)
Calls of active or inactive are those of the source.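 The calls were made as follows: active = AC50 no higher than twice the top valid tested dose, with signal falling as dose rises; inconclusive = flat fit with partial inhibition, or a poor-quality fit; inactive = the rest, plus effects in the rising direction.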

Target: Kelch-like ECH-associated protein 1 (Homo sapiens) (UniProt Q14145)
Experiment: disruptors of Keap1/Nrf2 protein interaction – biochemical, fluorescence polarization, dry powder, set 3, dose response (AID 651806)
Conditions: Keap1 Kelch/FITC-Nrf2 peptide fluorescence polarization

Kelch-like ECH-associated protein 1 (Homo sapiens), sequence (Q14145 whole entry, looked up): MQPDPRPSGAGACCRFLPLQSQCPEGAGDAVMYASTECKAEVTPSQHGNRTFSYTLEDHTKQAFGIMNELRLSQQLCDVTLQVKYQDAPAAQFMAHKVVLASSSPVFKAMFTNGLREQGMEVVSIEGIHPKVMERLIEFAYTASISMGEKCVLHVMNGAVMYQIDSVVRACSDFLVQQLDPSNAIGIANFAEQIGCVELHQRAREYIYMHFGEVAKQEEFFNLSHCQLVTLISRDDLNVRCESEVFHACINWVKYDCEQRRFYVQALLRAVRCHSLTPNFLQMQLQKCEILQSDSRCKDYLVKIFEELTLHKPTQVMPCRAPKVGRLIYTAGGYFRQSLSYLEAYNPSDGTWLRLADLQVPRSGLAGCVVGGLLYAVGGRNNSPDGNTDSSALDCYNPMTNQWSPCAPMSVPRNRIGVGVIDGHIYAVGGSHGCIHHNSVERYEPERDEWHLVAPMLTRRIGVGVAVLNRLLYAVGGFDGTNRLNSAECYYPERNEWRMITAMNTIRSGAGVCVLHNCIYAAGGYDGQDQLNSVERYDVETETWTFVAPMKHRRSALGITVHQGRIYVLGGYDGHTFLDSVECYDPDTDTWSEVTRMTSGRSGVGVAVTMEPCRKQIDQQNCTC

Structure (SMILES)	activity change, negative = inhibition (at 50 µM (top of the series))	also measured
Cc1ccc(S(=O)(=O)Nc2cc(C(C(=O)OC(C)C)C(=O)C(F)(F)F)c(O)c3ccccc23)cc1 (stereo not given)		AC50: > 100 µM (inactive)
O=C(O)c1ccccc1C(=O)N1CCc2ccccc2C1CN1C(=O)c2ccccc2C1=O (stereo not given)	inactive	
Cc1ccc(S(=O)(=O)NC(=O)[C@@H]2c3ccccc3CCN2C(=O)[C@@H]2CCCC[C@@H]2C(=O)O)cc1	inactive	AC50: > 100 µM (inactive)
O=C(O)C1CCCCC1C(=O)N1CCc2ccccc2C1CN1C(=O)c2ccccc2S1(=O)=O (stereo not given)		AC50: > 100 µM (inactive)
O=C1c2ccccc2C(=O)N1CC1c2ccccc2CCN1C(=O)Cc1ccccc1 (stereo not given)		activity change, negative = inhibition (at 12 µM (top of the series)): inactive
Cc1ccc(S(=O)(=O)NNc2nc(NCC(N)=O)nc3ccccc23)cc1	inactive	
O=C(O)CCC(=O)N1CCc2ccccc2C1CN1C(=O)c2ccccc2C1=O (stereo not given)	inactive	
Cc1ccc(S(=O)(=O)NC2=CC(=N[C@@H](C)C(=O)OC(C)(C)C)C(=O)c3ccccc32)c(C)c1	inactive	
O=C(NC[C@@H]1c2ccccc2CCN1C(=O)[C@@H]1CCCC[C@@H]1C(=O)O)c1ccc(CCl)cc1	inactive	
O=C(O)CCCC(=O)N1CCc2ccccc2C1CN1C(=O)c2ccccc2C1=O (stereo not given)	inactive	
NC(=O)[C@H]1CCCC[C@H]1C(=O)N1CCc2ccccc2[C@H]1CN1C(=O)c2ccccc2C1=O	inactive	
Cc1cc(C)c(S(=O)(=O)Nc2cc(C(C(=O)OC(C)C)C(=O)C(F)(F)F)c(O)c3ccccc23)c(C)c1 (stereo not given)		AC50: 14.7 µM
CC(=O)Nc1cc(NS(=O)(=O)c2c(C)cc(C)cc2C)c2ccccc2c1O		AC50: > 100 µM (inactive)
O=C(NCCCN1CCOCC1)c1ccccc1C(=O)NC[C@@H]1c2ccccc2CCN1C(=O)C1CCCCC1C(=O)O (stereo not given in full)	inactive	
O=C(O)[C@@H]1CCCN1C(=O)N1CCc2ccccc2[C@H]1CN1C(=O)c2ccccc2C1=O	inactive	
O=C(O)CC(=O)N1CCc2ccccc2C1CN1C(=O)c2ccccc2C1=O (stereo not given)	inactive	
C[C@@H](NC(=O)C1CCCC[C@H]1C(=O)O)c1ccccc1 (mixture of isomers)	inactive	
CC(C)OC(=O)C(C(=O)C(F)(F)F)c1cc(NS(=O)(=O)c2ccccc2)c2ccccc2c1O (stereo not given)		AC50: > 100 µM (inactive)
O=S(=O)(Nc1nc(NCC2CCCCC2)nc2ccccc12)c1ccccc1	inactive	
O=C(O)C1CCCCC1C(=O)N1CCc2ccccc2[C@H]1C(=O)NC12CC3CC(CC(C3)C1)C2 (stereo not given in full)	inactive	

Structure (SMILES)	activity change, negative = inhibition (at 50 µM (top of the series))	also measured
Cc1ccccc1S(=O)(=O)Nc1cc(C(C(=O)OC(C)C)C(=O)C(F)(F)F)c(O)c2ccccc12 (stereo not given)		AC50: > 100 µM (inactive)
O=C1c2ccccc2C(=O)N1C[C@@H]1c2ccccc2CCN1C(=O)OCc1ccccc1	inactive	
O=C1c2ccccc2C(=O)N1C[C@H]1NCCc2ccccc21	inactive	
O=C(NC[C@@H]1c2ccccc2CCN1C(=O)[C@@H]1CCCC[C@@H]1C(=O)O)c1ccccc1CO	inactive	
O=C(O)C1CCCCC1C(=O)N1CCCCC1CN1C(=O)c2ccccc2C1=O (stereo not given)	inactive	
CCOC(=O)C(C(=O)OCC)c1cc(CN2C(=O)c3ccccc3C2=O)c2ccccc2n1	inactive	
O=C(NC[C@@H]1c2ccccc2CCN1C(=O)[C@@H]1CCCC[C@@H]1C(=O)O)c1ccc(CN2CCOCC2)cc1	inactive	
Cc1cc(C)c(S(=O)(=O)Nc2cc(C(C(=O)OCc3ccccc3)C(=O)OCc3ccccc3)c(O)c3ccccc23)c(C)c1	inactive	
O=C(O)C1CCCCC1C(=O)NCC1c2ccccc2CCN1C(=O)Cc1ccccc1 (stereo not given)	inactive	
Cc1ccc(S(=O)(=O)NC[C@@H]2c3ccccc3CCN2C(=O)[C@@H]2CCCC[C@@H]2C(=O)O)c(C)c1	inactive	
O=C(NC[C@@H]1c2ccccc2CCN1C(=O)[C@@H]1CCCC[C@@H]1C(=O)O)c1ccccc1	inactive	
COc1ccc(CCN=C2C=C(NS(=O)(=O)c3c(C)cc(C)cc3C)c3ccccc3C2=O)cc1	inactive	
CCOC(=O)Cc1nc(NS(=O)(=O)c2c(C)cc(C)cc2C)c2ccccc2n1	inactive	
O=C1c2ccccc2C(=O)N1C[C@@H]1c2ccccc2CCN1C(=O)C1CCCCC1	inactive	
Cc1cc(C)c(S(=O)(=O)Nc2ncnc3ccccc23)c(C)c1	inactive	
Cc1cc(C)c(S(=O)(=O)Nc2nc(N(C)C)nc3ccccc23)c(C)c1	inactive	
NC(=O)c1ccccc1C(=O)NC[C@@H]1c2ccccc2CCN1C(=O)[C@@H]1CCCC[C@@H]1C(=O)O	inactive	
O=C(O)C1CCCCC1C(=O)N1CCc2ccccc2C1CN1C(=O)Cc2ccccc2C1=O (stereo not given)		AC50: > 100 µM (inactive)
O=C(O)[C@H]1CCCC[C@H]1C(=O)N1CCc2ccccc2C1CCN1C(=O)c2ccccc2C1=O (stereo not given in full)	inactive	

Second part, led by results:

activity change, negative = inhibition (at 50 µM (top of the series))	Structure (SMILES)	also measured
inactive	O=C(O)C1CCCCC1C(=O)N1CCc2ccccc2C1CN1C(=O)[C@H]2CCCC[C@H]2C1=O (stereo not given in full)	
inactive	O=C(O)[C@H]1C2C=CC(C2)[C@H]1C(=O)N1CCc2ccccc2C1CN1C(=O)c2ccccc2C1=O (stereo not given in full)	
inactive	Cc1cc(C)c(S(=O)(=O)Nc2nc(NCCO)nc3ccccc23)c(C)c1	
inactive	COC(=O)[C@@H]1CCCC[C@@H]1C(=O)N1CCc2ccccc2[C@@H]1CN1C(=O)c2ccccc2C1=O	
inactive	O=C(O)[C@H]1CCCC[C@H]1C(=O)N1CCc2ccccc2C1 (racemic)	
inactive	O=C(O)C1CCCCC1C(=O)N1CCc2ccccc2[C@H]1C(=O)NCCc1ccccc1 (stereo not given in full)	
inactive	O=C1c2ccccc2C(=O)N1CC1=NCCc2ccccc21	
inactive	C[C@H](NC(=O)C1CCCC[C@H]1C(=O)O)c1ccccc1 (mixture of isomers)	
inactive	O=C(O)C1CCCCC1C(=O)Nc1ccccc1CN1C(=O)c2ccccc2C1=O (stereo not given)	
inactive	CCOC(=O)C(C(=O)OCC)c1cc(CNS(=O)(=O)c2ccc(C)cc2C)c2ccccc2n1	
inactive	COC(=O)[C@@H]1CCCC[C@@H]1C(=O)N1CCc2ccccc2[C@H]1CN1C(=O)c2ccccc2C1=O	
inactive	Cc1ccc(S(=O)(=O)NNc2nc(C(C(=O)OC(C)C)C(=O)C(F)(F)F)nc3ccccc23)cc1 (stereo not given)	
inactive	O=C(Oc1cc(CN2C(=O)c3ccccc3C2=O)c2ccccc2[n+]1[O-])c1cccc(Cl)c1	
inactive	O=C(O)C1CCCCC1C(=O)N1CCc2ccccc2C1c1ccccc1 (stereo not given)	
inactive	O=C(O)[C@H]1CCCC[C@H]1C(=O)N1CCc2ccccc2[C@H]1CNc1nc(Cl)nc2ccccc12	
inactive	O=C(O)c1ccccc1C(=O)NC[C@@H]1c2ccccc2CCN1C(=O)[C@@H]1CCCC[C@@H]1C(=O)O	
inactive	COC(=O)[C@H]1CCCC[C@H]1C(=O)N1CCc2ccccc2[C@H]1CN1C(=O)c2ccccc2C1=O	

activity change, negative = inhibition (at 50 µM (top of the series))	Structure (SMILES)	also measured
inactive	O=C(NC[C@@H]1c2ccccc2CCN1C(=O)[C@@H]1CCCC[C@@H]1C(=O)O)OCC1c2ccccc2-c2ccccc21	
inactive	CC(C)CNc1nc(NS(=O)(=O)c2ccccc2)c2ccccc2n1	
inactive	COC(=O)C1CCCCC1C(=O)N1CCc2ccccc2C1CN1C(=O)c2ccccc2C1=O (stereo not given)	
inactive	O=C(Cc1ccccc1)NC[C@@H]1c2ccccc2CCN1C(=O)[C@@H]1CCCC[C@@H]1C(=O)O	
inactive	COC(=O)CNc1nc(NS(=O)(=O)c2c(C)cc(C)cc2C)c2ccccc2n1	
inactive	CCOC(=O)C(C(=O)OCC)c1nc(NS(=O)(=O)c2c(C)cc(C)cc2C)c2ccccc2n1	
inactive	O=C(NCCc1ccccc1)c1ccccc1C(=O)NC[C@@H]1c2ccccc2CCN1C(=O)C1CCCCC1C(=O)O (stereo not given in full)	
inactive	O=C(O)[C@H]1CCCC[C@H]1C(=O)NC(CN1C(=O)c2ccccc2C1=O)c1ccccc1 (stereo not given in full)	
inactive	O=C(O)/C=C\C(=O)N1CCc2ccccc2C1CN1C(=O)c2ccccc2C1=O (stereo not given)	
inactive	O=C(O)[C@H]1CCCC[C@H]1C(=O)N1CCc2ccccc2[C@H]1CNS(=O)(=O)c1ccccc1	
inactive	COc1ccccc1CCNC(=O)[C@@H]1c2ccccc2CCN1C(=O)C1CCCCC1C(=O)O (stereo not given in full)	
inactive	COC(=O)C(C(=O)OC)c1cc(NS(=O)(=O)c2c(C)cc(C)cc2C)c2ccccc2c1O	
inactive	C=CC(=O)NC[C@@H]1c2ccccc2CCN1C(=O)[C@@H]1CCCC[C@@H]1C(=O)O	
inactive	O=C(NCCO)c1ccccc1C(=O)NC[C@@H]1c2ccccc2CCN1C(=O)C1CCCCC1C(=O)O (stereo not given in full)	
inactive	Cc1ccc(S(=O)(=O)NNc2nc(N3CC(O)CC3C(=O)O)nc3ccccc23)cc1 (stereo not given)	
inactive	Cc1cc(C)c(S(=O)(=O)Nc2nc(C(C(=O)OC(C)C)C(=O)C(F)(F)F)nc3ccccc23)c(C)c1 (stereo not given)	
inactive	O=C(O)[C@H]1CCCC[C@H]1C(=O)N1CCC2=C(CCCC2)C1CN1C(=O)c2ccccc2C1=O (stereo not given in full)	AC50: > 100 µM (inactive)
